Experimental data reported in patent US9108950B2, “1-pyrazolyl-3-(4-((2-anilinopyrimidin-4-yl)oxy)napththalen-1-yl) ureas as p38 MAP kinase inhibitors” (Respivert Ltd., priority 2011, dated 2015).

Key:
[1] = tested on: Cigarette Smoke Model; experiment: Cigarette smoke model; format: in vivo, A/J mice
Experimental: A/J mice (males, 5 weeks old) were exposed to cigarette smoke (4% cigarette smoke, diluted with air) for 30 min/day for 11 days using a Tobacco Smoke Inhalation Experiment System for small animals (Model SIS-CS; Sibata Scientific Technology, Tokyo, Japan). […] At 12 hr after the last dosing, each of the animals was anesthetized, the trachea cannulated and bronchoalveolar lavage fluid (BALF) was collected. The numbers of alveolar macrophages and neutrophils were determined by FACS analysis (EPICS® ALTRA II, Beckman Coulter, Inc., Fullerton, Calif., USA) using anti-mouse MOMA2 antibody (macrophage) or anti-mouse 7/4 antibody (neutrophil). BALF was centrifuged and the supernatant was collected. The level of keratinocyte chemoattractant (KC; CXCL1) in BALF was quantitated using a Quentikine® mouse KC ELISA kit (R&D systems, Inc., Minneapolis, Minn., USA).

[2] = Dynamic vapour sorption; format: physicochemical; settings: form B micronized
Experimental: Plots were obtained using a Surface Measurement Systems dynamic vapor sorption model DVS-1 using about 10 mg of the sample. The weight change was recorded with respect to atmospheric humidity at 25° C. and was determined using the following parameters: drying: 60 min under dry nitrogen; equilibrium: 60 min/step; data interval: 0.05% or 2.0 min. The relative humidity [RH %] measurement points were as follows:
The DVS isotherm plot for the micronized reference sample is illustrated in FIG. 4 and the DVS change in mass plot for the micronized reference sample is illustrated in FIG. 5. […] The product adsorbed up to 0.4% moisture depending on the atmospheric humidity.

[3] = Chemical stability by HPLC; format: physicochemical; settings: form B micronized
Experimental: Analyses were carried out on a Waters Xbridge C18 column (3.0×150 mm; 3.5 μm) using the following operating conditions: column temperature: 40° C.; sample temperature: 5° C.; flow rate: 0.45 mL/min; injection volume: 7 μL; UV detection at 260 nm; mobile phase composition comprised of Phase A: 10 mM ammonium acetate+0.1%, v/v trifluoroacetic acid in water and Phase B: acetonitrile, using the gradient defined by the parameters below (Table 2).
The reference and comparative samples were then analyzed by HPLC using the method described in General Procedures and by visual inspection.

## Cc1ccc(-n2nc(C(C)(C)C)cc2NC(=O)Nc2ccc(Oc3ccnc(Nc4ccccc4)n3)c3ccccc23)cc1 [Compound (I), 1-(3-(tert-Butyl)-1-(p-tolyl)-1H-pyrazol-5-yl)-3-(4-((2-(phenylamino)pyrimidin-4-yl)oxy)naphthalen-1-yl)urea]
[1]; 0.32 μg/mL
  CXCL1 in BALF % inhibition: 0%
  Macrophage % inhibition: 11%
  Neutrophil % inhibition: 12%
  Neutrophil cell numbers in BALF: 12.4 ± 0.32 × 10^4/mL
[1]; 0.32 μg/mL intra-nasal, tobacco smoke
  Macrophage cell numbers in BALF: 13.3 ± 0.20 × 10^4/mL
[1]; 0.32 μg/mL, tobacco smoke
  CXCL1 in BALF: 13.6 ± 1.69 pg/mL
[1]; 1.6 μg/mL
  CXCL1 in BALF: 12.2 ± 0.96 pg/mL
  CXCL1 in BALF % inhibition: 26%
  Macrophage % inhibition: 28%
  Macrophage cell numbers in BALF: 11.6 ± 0.42 × 10^4/mL
  Neutrophil % inhibition: 29%
  Neutrophil cell numbers in BALF: 10.5 ± 0.06 × 10^4/mL
[1]; 8.0 μg/mL
  CXCL1 in BALF: 11.4 ± 0.15 pg/mL
  CXCL1 in BALF % inhibition: 41%
  Macrophage % inhibition: 43%
  Macrophage cell numbers in BALF: 10.1 ± 0.42 × 10^4/mL
  Neutrophil % inhibition: 41%
  Neutrophil cell numbers in BALF: 9.1 ± 0.28 × 10^4/mL
[1]; 40 μg/mL
  CXCL1 in BALF: 9.5 ± 0.84 pg/mL
  CXCL1 in BALF % inhibition: 76%
  Macrophage % inhibition: 64%
  Macrophage cell numbers in BALF: 7.9 ± 0.20 × 10^4/mL
  Neutrophil % inhibition: 52%
  Neutrophil cell numbers in BALF: 7.9 ± 0.34 × 10^4/mL
[1]; mice
  effect on cigarette smoke induced CXCL1 (KC) production in BALF: inhibited
  effect on macrophage and neutrophil accumulation in BALF induced by cigarette smoke: dose-dependent inhibition
[2]
  hygroscopic behavior (DVS): no hygroscopic behavior
[2]; depending on atmospheric humidity, 25° C.
  moisture adsorbed (DVS): up to 0.4%
[3]
  chemical stability: chemically stable
  sensitivity to light: some sensitivity to light was observed
[3]; 40° C./75% RH, 1 week
  Appearance: off-white
  Sum of impurities by HPLC: 0.66%
[3]; 40° C./75% RH, 4 weeks
  Appearance: off-white
  Sum of impurities by HPLC: 0.68%
[3]; 50° C., 1 week
  Appearance: off-white
  Sum of impurities by HPLC: 0.69%
[3]; 50° C., 4 weeks
  Appearance: off-white
  Sum of impurities by HPLC: 0.66%
[3]; 70° C./75% RH, 1 week
  Appearance: off-white
  Sum of impurities by HPLC: 0.73%
[3]; 80° C., 1 week
  Appearance: off-white
  Sum of impurities by HPLC: 0.73%
[3]; 0.3 day, ICH light
  Appearance: off-white
[3]; 0.3 day, ICH light (700 W/m^2)
  Sum of impurities by HPLC: 1.44%
[3]; RT/56% RH, 4 weeks
  Appearance: off-white
  Sum of impurities by HPLC: 0.67%
[3]; RT/75% RH, 4 weeks
  Appearance: off-white
  Sum of impurities by HPLC: 0.67%
[3]; RT/<5% RH, 4 weeks
  Appearance: off-white
  Sum of impurities by HPLC: 0.67%
[3]; T = zero
  Appearance: off-white
  Sum of impurities by HPLC: 0.66%
